From PubChem BioAssay (NCI)
Several values for one entry are separate records, joined by “and”; a condition that tells them apart may be missing. Identical values can stand only once.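 Five concentrations, 48 hours, 96-well plates. GI50: concentration for 50% inhibition of growth. TGI: total growth inhibition.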

How the values were obtained:
Experiment in all cases: growth of human tumour cells (NCI), 48 h
OVCAR-3 ovarian = tested on: OVCAR-3 ovarian
OVCAR-8 ovarian = tested on: OVCAR-8 ovarian
CAKI-1 renal = tested on: CAKI-1 renal
HS 578T breast = tested on: HS 578T breast
OVCAR-4 ovarian = tested on: OVCAR-4 ovarian
NCI-H460 lung = tested on: NCI-H460 lung
TK-10 renal = tested on: TK-10 renal
ACHN renal = tested on: ACHN renal
SW-620 colon = tested on: SW-620 colon
T-47D breast = tested on: T-47D breast

OCC#Cc1ccccc1C#Cc1ccc(C#Cc2ccccc2)cc1
GI50 (OVCAR-3 ovarian): 27.3 µM | TGI (OVCAR-3 ovarian): 48.7 µM | GI50 (OVCAR-8 ovarian): 23.1 µM | TGI (OVCAR-8 ovarian): 57 µM | GI50 (CAKI-1 renal): 44.5 µM | TGI (CAKI-1 renal): > 100 µM | GI50 (HS 578T breast): 31 µM | TGI (HS 578T breast): > 100 µM | GI50 (OVCAR-4 ovarian): 20.4 µM | TGI (OVCAR-4 ovarian): > 100 µM | GI50 (NCI-H460 lung): 20.5 µM | TGI (NCI-H460 lung): 79.8 µM | GI50 (TK-10 renal): 13 µM | TGI (TK-10 renal): 32.9 µM | GI50 (ACHN renal): 18.9 µM | TGI (ACHN renal): 37 µM | GI50 (SW-620 colon): 17.2 µM | TGI (SW-620 colon): 44.4 µM

O=c1cccccc1[O-].O=c1cccccc1[O-].O=c1cccccc1[O-].[Sm+3]
TGI (OVCAR-3 ovarian): 47 µM | TGI (OVCAR-8 ovarian): > 100 µM | TGI (CAKI-1 renal): > 100 µM | TGI (OVCAR-4 ovarian): > 100 µM | TGI (NCI-H460 lung): > 100 µM | TGI (TK-10 renal): > 100 µM | TGI (ACHN renal): > 100 µM | TGI (SW-620 colon): > 100 µM

CC(=O)OCC1OC(n2c(=S)n(-c3ccccc3)c(=O)c3cc(Br)cc(Br)c32)C(OC(C)=O)C(OC(C)=O)C1OC(C)=O (stereo unspecified)
GI50 (OVCAR-3 ovarian): 47.4 µM and > 100 µM | TGI (OVCAR-3 ovarian): > 100 µM | TGI (OVCAR-8 ovarian): > 100 µM | TGI (CAKI-1 renal): > 100 µM | TGI (NCI-H460 lung): > 100 µM | TGI (ACHN renal): > 100 µM | TGI (SW-620 colon): > 100 µM

COc1cc(CCc2ccc(OC(C)=O)cc2)cc(OC)c1OC
TGI (OVCAR-3 ovarian): > 100 µM | TGI (OVCAR-8 ovarian): > 100 µM | TGI (CAKI-1 renal): > 100 µM | TGI (OVCAR-4 ovarian): > 100 µM | TGI (NCI-H460 lung): > 100 µM | TGI (TK-10 renal): > 100 µM | TGI (ACHN renal): > 100 µM | TGI (SW-620 colon): > 100 µM

CN(C)c1ccc(O[Si](Oc2ccc(N(C)C)cc2)(Oc2ccc(N(C)C)cc2)Oc2ccc(N(C)C)cc2)cc1
TGI (OVCAR-3 ovarian): > 100 µM | TGI (OVCAR-8 ovarian): > 100 µM | TGI (CAKI-1 renal): > 100 µM | TGI (OVCAR-4 ovarian): > 100 µM | TGI (TK-10 renal): > 100 µM | TGI (ACHN renal): > 100 µM | TGI (SW-620 colon): > 100 µM

Nc1ncc(C2[C@H](CNC(=O)c3cc(Br)c[nH]3)C(CNC(=O)c3cc(Br)c[nH]3)[C@@H]2c2cnc(N)[nH]2)[nH]1 (stereo partly specified)
GI50 (OVCAR-3 ovarian): > 50 µM | TGI (OVCAR-3 ovarian): > 50 µM | GI50 (OVCAR-8 ovarian): > 50 µM | TGI (OVCAR-8 ovarian): > 50 µM | GI50 (CAKI-1 renal): > 50 µM | TGI (CAKI-1 renal): > 50 µM | GI50 (HS 578T breast): 40.1 µM | TGI (HS 578T breast): > 50 µM | GI50 (OVCAR-4 ovarian): > 50 µM | TGI (OVCAR-4 ovarian): > 50 µM | GI50 (NCI-H460 lung): > 50 µM | TGI (NCI-H460 lung): > 50 µM | GI50 (TK-10 renal): > 50 µM | TGI (TK-10 renal): > 50 µM | GI50 (ACHN renal): > 50 µM | TGI (ACHN renal): > 50 µM | GI50 (SW-620 colon): > 50 µM | TGI (SW-620 colon): > 50 µM

CCOc1ccccc1NC(=O)C1=C(C)NC(C)=C(C(=O)Nc2ccccc2OCC)C1c1ccc([N+](=O)[O-])cc1
TGI (OVCAR-3 ovarian): > 100 µM | TGI (CAKI-1 renal): > 100 µM | TGI (OVCAR-4 ovarian): > 100 µM | TGI (NCI-H460 lung): > 100 µM | TGI (ACHN renal): > 100 µM | TGI (SW-620 colon): > 100 µM

CC(=O)[O-].[Mn+3].[O-]c1ccc(Cl)cc1C=NCCN=Cc1cc(Cl)ccc1[O-]
GI50 (OVCAR-3 ovarian): 37.6 µM | TGI (OVCAR-3 ovarian): > 100 µM | GI50 (OVCAR-8 ovarian): > 100 µM | TGI (OVCAR-8 ovarian): > 100 µM | GI50 (OVCAR-4 ovarian): > 100 µM | TGI (OVCAR-4 ovarian): > 100 µM | GI50 (NCI-H460 lung): > 100 µM | TGI (NCI-H460 lung): > 100 µM | GI50 (TK-10 renal): > 100 µM | TGI (TK-10 renal): > 100 µM | GI50 (ACHN renal): > 100 µM | TGI (ACHN renal): > 100 µM

COC(=O)C1CCC(=O)N1/C(C)=N/NC(=O)Nc1ccc(Cl)c(Cl)c1 (stereo unspecified)
TGI (OVCAR-3 ovarian): > 100 µM | TGI (OVCAR-8 ovarian): > 100 µM | TGI (CAKI-1 renal): > 100 µM | TGI (OVCAR-4 ovarian): > 100 µM | TGI (NCI-H460 lung): > 100 µM | TGI (TK-10 renal): > 100 µM | TGI (ACHN renal): > 100 µM | TGI (SW-620 colon): > 100 µM

NNC(=O)N/N=C1\CN(c2ccc(Cl)cc2Cl)C(=O)C(=O)C1c1nc2ccccc2o1 (stereo unspecified)
TGI (OVCAR-3 ovarian): > 100 µM | TGI (OVCAR-8 ovarian): > 100 µM | TGI (CAKI-1 renal): > 100 µM | TGI (OVCAR-4 ovarian): > 100 µM | TGI (NCI-H460 lung): > 100 µM | TGI (ACHN renal): > 100 µM | TGI (SW-620 colon): > 100 µM

COc1ccc2c(c1)[n+](=O)c(C(C)=O)c(C)n2[O-]
TGI (OVCAR-3 ovarian): > 100 µM | TGI (OVCAR-8 ovarian): > 100 µM | TGI (CAKI-1 renal): > 100 µM | TGI (OVCAR-4 ovarian): > 100 µM | TGI (NCI-H460 lung): > 100 µM | TGI (TK-10 renal): > 100 µM | TGI (ACHN renal): > 100 µM | TGI (SW-620 colon): > 100 µM

O=C(O)Cn1ccc(=O)c2cc([N+](=O)[O-])ccc21
TGI (OVCAR-3 ovarian): > 100 µM | TGI (OVCAR-8 ovarian): > 100 µM | TGI (CAKI-1 renal): > 100 µM | TGI (HS 578T breast): > 100 µM | TGI (NCI-H460 lung): > 100 µM | TGI (TK-10 renal): > 100 µM | TGI (ACHN renal): > 100 µM | TGI (T-47D breast): > 100 µM | TGI (SW-620 colon): > 100 µM

COc1ccc(C(=O)O/N=C2/CCCCC2CN(C)C)cc1 (stereo unspecified)
TGI (OVCAR-3 ovarian): > 100 µM | TGI (OVCAR-8 ovarian): > 100 µM | TGI (CAKI-1 renal): > 100 µM | TGI (OVCAR-4 ovarian): > 100 µM | TGI (NCI-H460 lung): > 100 µM | TGI (TK-10 renal): > 100 µM | TGI (ACHN renal): > 100 µM | TGI (SW-620 colon): > 100 µM

O=C(C(=O)c1cc(Br)ccc1O)c1cc(Br)ccc1O
GI50 (OVCAR-3 ovarian): 2.84 µM | TGI (OVCAR-3 ovarian): 9.32 µM | GI50 (OVCAR-8 ovarian): 7.46 µM | TGI (OVCAR-8 ovarian): 40.5 µM | GI50 (CAKI-1 renal): 2.16 µM | TGI (CAKI-1 renal): 6.05 µM | GI50 (OVCAR-4 ovarian): 6.04 µM | TGI (OVCAR-4 ovarian): > 100 µM | GI50 (TK-10 renal): 3.44 µM | TGI (TK-10 renal): 17.9 µM | GI50 (ACHN renal): 3.75 µM | TGI (ACHN renal): 50 µM | GI50 (T-47D breast): 3.87 µM | TGI (T-47D breast): > 100 µM

COC(=O)c1sc(=NC(=S)N2CCCCC2)sc1C(=O)OC
TGI (OVCAR-3 ovarian): 34.2 µM | TGI (OVCAR-8 ovarian): > 100 µM | TGI (CAKI-1 renal): > 100 µM | TGI (OVCAR-4 ovarian): > 100 µM | TGI (NCI-H460 lung): > 100 µM | TGI (TK-10 renal): > 100 µM | TGI (ACHN renal): > 100 µM | TGI (SW-620 colon): > 100 µM

c1ccc2c3c([nH]c2c1)C1C2CCCCN2C(c2ccncc2)N1CC3 (stereo unspecified)
TGI (OVCAR-3 ovarian): > 100 µM | TGI (OVCAR-8 ovarian): > 100 µM | TGI (CAKI-1 renal): > 100 µM | TGI (OVCAR-4 ovarian): > 100 µM | TGI (NCI-H460 lung): > 100 µM | TGI (ACHN renal): > 100 µM | TGI (SW-620 colon): > 100 µM

COc1ccc(-c2cc(-c3ccco3)c(C#N)c(=O)[nH]2)cc1
TGI (OVCAR-3 ovarian): 53.8 µM | TGI (OVCAR-8 ovarian): > 100 µM | TGI (OVCAR-4 ovarian): > 100 µM | TGI (NCI-H460 lung): > 100 µM | TGI (TK-10 renal): > 100 µM | TGI (ACHN renal): > 100 µM | TGI (SW-620 colon): > 100 µM

CN(C)c1ccc(C2CC(C)(O)Oc3cc4c(cc32)OCO4)cc1 (stereo unspecified)
TGI (OVCAR-3 ovarian): > 100 µM | TGI (OVCAR-8 ovarian): 94.7 µM | TGI (CAKI-1 renal): > 100 µM | TGI (HS 578T breast): > 100 µM | TGI (NCI-H460 lung): > 100 µM | TGI (TK-10 renal): > 100 µM | TGI (ACHN renal): > 100 µM | TGI (T-47D breast): > 100 µM | TGI (SW-620 colon): > 100 µM

OCC(O)C(O)C(O)C(O)c1nn[nH]n1 (stereo unspecified)
TGI (OVCAR-3 ovarian): > 100 µM | TGI (OVCAR-8 ovarian): > 100 µM | TGI (CAKI-1 renal): > 100 µM | TGI (OVCAR-4 ovarian): > 100 µM | TGI (NCI-H460 lung): > 100 µM | TGI (ACHN renal): > 100 µM | TGI (SW-620 colon): > 100 µM

CCCCC[C@@H](C/C=C/CCC(=O)NC/C(=C/Cl)[C@H]1C(=O)C(C)(C)C(=O)[C@@H](C)[C@@]1(C)O)OC
GI50 (OVCAR-3 ovarian): 16.3 µM | TGI (OVCAR-3 ovarian): 30.5 µM | GI50 (OVCAR-8 ovarian): 18.6 µM | TGI (OVCAR-8 ovarian): 36.1 µM | GI50 (CAKI-1 renal): 18.2 µM | TGI (CAKI-1 renal): 34.1 µM | GI50 (OVCAR-4 ovarian): 20 µM | TGI (OVCAR-4 ovarian): 45.8 µM | GI50 (NCI-H460 lung): 17.7 µM | TGI (NCI-H460 lung): 35.1 µM | GI50 (TK-10 renal): 20.8 µM | TGI (TK-10 renal): 40.5 µM | GI50 (ACHN renal): 18 µM | TGI (ACHN renal): 32.6 µM | GI50 (T-47D breast): 15.4 µM | TGI (T-47D breast): 34.6 µM | GI50 (SW-620 colon): 20.8 µM | TGI (SW-620 colon): 39.3 µM

Cc1nc(-n2nc(-c3ccccc3)cc2-c2ccccc2)sc1C(=O)/C=C/c1ccccc1
TGI (OVCAR-3 ovarian): > 100 µM | TGI (OVCAR-8 ovarian): > 100 µM | TGI (CAKI-1 renal): > 100 µM | TGI (NCI-H460 lung): > 100 µM | TGI (TK-10 renal): > 100 µM | TGI (ACHN renal): > 100 µM | TGI (SW-620 colon): > 100 µM

C/C(CC(=O)Nc1cccc([N+](=O)[O-])c1)=N\NC(=O)C[n+]1ccccc1
TGI (OVCAR-3 ovarian): > 100 µM | TGI (OVCAR-8 ovarian): > 100 µM | TGI (NCI-H460 lung): > 100 µM | TGI (TK-10 renal): > 100 µM | TGI (SW-620 colon): > 100 µM
